# Experimental data from patent US20240365736A1, “COMPOSITIONS AND METHODS FOR TARGETED DEGRADATION OF PROTEINS IN A PLANT CELL” (Oerth Bio LLC, priority 2021, published 2024).
# pKd: −log10 of the molar value.
# Biological target: plant cereblon (Cereblon ligand binding domain) (Arabidopsis thaliana, UniProt F4ISN3)
# Assay: Ligand binding affinity by microscale thermophoresis (Monolith), labeled Cereblon ligand binding domain
# Details: MST, RED-tris-NTA His-tag labeled Cereblon ligand binding domain, 25 nM labeled protein; binding to plant cereblon; read-out: Plant CRBN Kd
# Description: The binding affinity of the described test compounds was determined using RED-tris-NTA His-tag labeled Cereblon ligand binding domain. The labeling of the Cereblon ligand binding domain was performed according to manufacturer's protocol in assay buffer (50 nM protein: 10 nM dye, 5:1 protein to dye ratio). 200 μM compound in assay buffer (10 mM HEPES pH 7.4, 300 mM NaCl, 0.1% Pluronic-147, 10% Glycerol, 5 mM DTT) was created from 10 mM compound stock in DMSO. A 16-point serial dilution was achieved by taking 10 μL of the 200 μM first well and diluting into 10 μL of assay buffer in the second well, which was diluted in 10 μL assay buffer in the third well, and so on. DMSO content of each well matched to 2%. 10 μL of 50 nM CRBN was added to each well and mixed thoroughly by pipetting. Final assay concentration of 25 nM labeled protein and highest compound concentration of 100 μM, 1% DMSO.
# Samples were incubated at room temperature in the dark for five minutes, then collected in standard Monolith capillaries. Assay was performed on the Monolith NT.155Pico using automated excitation level and medium power on M.O. Control software. Analysis of MST traces and determination of dissociation constants and was conducted in M.O. Affinity Analysis software, and the results are shown in Table 2 below.
# Sequence of plant cereblon (Cereblon ligand binding domain) (F4ISN3 1-547): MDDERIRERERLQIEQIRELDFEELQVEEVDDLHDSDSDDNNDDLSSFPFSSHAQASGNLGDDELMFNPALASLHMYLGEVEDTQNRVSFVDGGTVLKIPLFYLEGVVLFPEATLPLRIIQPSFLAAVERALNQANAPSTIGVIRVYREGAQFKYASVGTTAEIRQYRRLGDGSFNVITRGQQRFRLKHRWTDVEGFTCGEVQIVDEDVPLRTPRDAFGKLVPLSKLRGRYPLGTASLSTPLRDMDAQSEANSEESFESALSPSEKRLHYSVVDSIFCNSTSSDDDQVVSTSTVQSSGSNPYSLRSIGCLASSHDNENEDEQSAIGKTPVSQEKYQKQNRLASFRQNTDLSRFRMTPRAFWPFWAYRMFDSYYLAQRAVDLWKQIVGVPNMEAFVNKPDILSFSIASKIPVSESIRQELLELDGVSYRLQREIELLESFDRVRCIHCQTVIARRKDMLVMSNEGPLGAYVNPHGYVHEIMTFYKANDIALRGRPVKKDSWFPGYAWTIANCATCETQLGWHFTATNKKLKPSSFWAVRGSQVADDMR
row,pKd,SMILES
1,> 7.00,"COCCOCC1COCCN1Cc1ccc(COc2cccc3c2CN([C@H]2CCC(=O)NC2=O)C3=O)cc1 (stereo partly drawn) [Example 11, (3S)-3-(4-((4-((3-((2-methoxyethoxy)methyl)morpholino)methyl)benzyl)-oxy)-1-oxoisoindolin-2-yl)piperidine-2,6-dione]"
2,6.00 to 7.00,"COCCNCC1COCCN1Cc1ccc(COc2cccc3c2CN([C@H]2CCC(=O)NC2=O)C3=O)cc1 (stereo partly drawn) [Example 12, (3S)-3-[4-[[4-[[3-[(2-Methoxyethylamino)methyl]morpholin-4-yl]methyl]-phenyl]methoxy]-1-oxo-isoindolin-2-yl]piperidine-2,6-dione]"
3,6.00 to 7.00,"COCCNC(=O)C1CCCN(Cc2ccc(COc3cccc4c3CN(C3CCC(=O)NC3=O)C4=O)cc2)C1 [Example 14, 1-(4-(((2-((S)-2,6-dioxopiperidin-3-yl)-1-oxoisoindolin-4-yl)oxy)methyl)benzyl)-N-(2-methoxyethyl)piperidine-3-carboxamide]"
4,6.00 to 7.00,"COCCNC(=O)C1CCN(Cc2ccc(COc3cccc4c3CN([C@H]3CCC(=O)NC3=O)C4=O)cc2)CC1 [Example 16, (S)-1-(4-(((2-(2,6-dioxopiperidin-3-yl)-1-oxoisoindolin-4-yl)oxy)methyl)benzyl)-N-(2-methoxyethyl)piperidine-4-carboxamide]"
5,6.00 to 7.00,"COCCNC(=O)C1CCN(Cc2ccc(COc3cccc4c3CN(C3CCC(=O)NC3=O)C4=O)cc2)C1 [Example 18, 1-(4-(((2-((S)-2,6-dioxopiperidin-3-yl)-1-oxoisoindolin-4-yl)oxy)methyl)benzyl)-N-(2-methoxyethyl)pyrrolidine-3-carboxamide]"
6,6.00 to 7.00,"COCCOCC1CCN(Cc2ccc(COc3cccc4c3CN([C@H]3CCC(=O)NC3=O)C4=O)cc2)CC1 [Example 20, (S)-3-(4-((4-((4-((2-methoxyethoxy)methyl)piperidin-1-yl)methyl)-benzyl)oxy)-1-oxoisoindolin-2-yl)piperidine-2,6-dione]"
7,> 7.00,"COCCOc1cc(OCc2ccc(CN3CCOCC3)cc2)c2c(c1)C(=O)N([C@H]1CCC(=O)NC1=O)C2 [Example 21, (3S)-3-[6-(2-methoxyethoxy)-4-[[4-(morpholinomethyl)-phenyl]methoxy]-1-oxo-isoindolin-2-yl]piperidine-2,6-dione]"
8,> 7.00,"COCCNc1cc(COc2cccc3c2CN([C@H]2CCC(=O)NC2=O)C3=O)ccc1CN1CCOCC1 [Example 22, (3S)-3-[4-[[3-(2-methoxyethylamino)-4-(morpholinomethyl)-phenyl]methoxy]-1-oxo-isoindolin-2-yl]piperidine-2,6-dione]"
9,6.00 to 7.00,"COCCNc1cc(CN2CCOCC2)ccc1COc1cccc2c1CN([C@H]1CCC(=O)NC1=O)C2=O [Example 23, (S)-3-(4-((2-((2-methoxyethyl)amino)-4-(morpholinomethyl)-benzyl)oxy)-1-oxoisoindolin-2-yl)piperidine-2,6-dione]"
10,6.00 to 7.00,"COCCNC(=O)c1cc(COc2cccc3c2CN([C@H]2CCC(=O)NC2=O)C3=O)ccc1CN1CCOCC1 [Example 24, (S)-5-(((2-(2,6-dioxopiperidin-3-yl)-1-oxoisoindolin-4-yl)oxy)methyl)-N-(2-methoxyethyl)-2-(morpholinomethyl)benzamide]"
11,< 6.00,"O=C1CCC(N2C(=O)c3ccccc3C2=O)C(=O)N1 (stereo not drawn) [Ref 1, Thalidomide, reference compound]"
12,< 6.00,"Nc1cccc2c1C(=O)N(C1CCC(=O)NC1=O)C2=O (stereo not drawn) [Ref 2, Pomalidomide, reference compound]"

# System: Matricaria recutita, Diplotaxis tenuifolia, Agrostis spp., Poa annua, or Arabidopsis thaliana
# Assay: Plant phenotyping assay (herbicidal phenotypes, 96-well plates); note: key: '+++' is highly active; '++' is moderately active; '+' is weakly active; '−' is inactive
# Format: in vivo
# Details: visual score of herbicidal phenotypes after seven days; 238, 475, 950, and 1900 g ai/ha (50-400 uM)
# Description: Seeds of Matricaria recutita, Diplotaxis tenuifolia, Agrostis spp., Poa annua, or Arabidopsis thaliana were sown into 96-well plates containing 200 μl of growth media [0.5× Murashige and Skoog (MS) basal media (Sigma-Aldrich), 2.5 mM 2-(N-morpholino) ethanesulfonic acid (MES—Sigma-Aldrich), 0.7 g/L Phytagar (Invitrogen); pH 5.7]. Three to five seeds were distributed per well. Plates were placed under fifteen hours of light at 23° C., 65% humidity in a controlled environment growth chamber. After approximately three days, test compounds and controls were mixed with acetone and emulsified with an equal volume of 3% methyl ester of rapeseed oil (Mero), and applied to plants at concentrations of 238, 475, 950, and 1900 g ai/ha (50-400 uM).
row,SMILES,Plant Activity
1,"COc1cnc(OC)n2nc(NS(=O)(=O)c3c(OCCOCCOCCOCCOCCOCCOc4ccc5c(c4)C(=O)N(C4CCC(=O)NC4=O)C5=O)cccc3C(F)(F)F)nc12 (stereo not drawn) [Compound 4-B, N-(5,8-Dimethoxy-[1,2,4]triazolo[1,5-c]pyrimidin-2-yl)-2-((17-((2-(2,6-dioxopiperidin-3-yl)-1,3-dioxoisoindolin-5-yl)oxy)-3,6,9,12,15-pentaoxaheptadecyl)oxy)-6-(trifluoromethyl)benzenesulfonamide]",+++
2,"O=C(COc1ccc(Oc2nc3ccc(F)cc3s2)cc1)NCCCOCCOCCOCCOc1ccc2c(c1)C(=O)N(C1CCC(=O)NC1=O)C2=O (stereo not drawn) [Compound 8-B, N-(3-(2-(2-(2-((2-(2,6-Dioxopiperidin-3-yl)-1,3-dioxoisoindolin-5-yl)oxy)ethoxy)ethoxy)ethoxy)propyl)-2-(4-((6-fluorobenzo[d]thiazol-2-yl)oxy)phenoxy)acetamide]",+
3,"CC(Oc1ccc(Oc2nc3ccc(F)cc3s2)cc1)C(=O)Nc1ccc(OCCCOCCOCCOCCOc2ccc3c(c2)C(=O)N(C2CCC(=O)NC2=O)C3=O)cc1F (stereo not drawn) [Compound 8-C, N-(4-(3-(2-(2-(2-((2-(2,6-Dioxopiperidin-3-yl)-1,3-dioxoisoindolin-5-yl)oxy)ethoxy)ethoxy)-ethoxy)propoxy)-2-fluorophenyl)-2-(4-((6-fluorobenzo[d]thiazol-2-yl)oxy)phenoxy)propanamide]",+

# System: not listed separately
# Assay: Uptake in plant cells: LCMS quantification in treated Abutilon leaves and leaf washings
# Format: in vivo
# Details: Abutilon (plant), leaf wash (20 mL acetonitrile), topical, 10 μL of 400 μM formulation per leaf; wash of treated Abutilon leaves in 20 mL acetonitrile, 24 hours after treatment; read-out: Average Concentration μM (leaf wash)
# Description: Abutilon plants were sown in 3 inch pots and allowed to germinate and reach the two leaf stage. At the two leaf stage, plants were separated into groups of 8 plants and had one of their first true leaves labeled with a black marker. Formulation treatment samples were prepared using the following protocol. All treatment samples were prepared to 400 μM. Just before treatment, samples were emulsified and 10 μL of formulated compound was pipetted onto leaves marked for treatment in small droplets evenly across the leaf surface. Once all leaves were treated, they were allowed to sit undisturbed in a growth chamber for 24 hours. After 24 hours plants were removed from the chamber for sample collection.
# Using clean scissors treated leaves were removed from the plants, and washed in 20 mL of LCMS grade acetonitrile. A sample of the wash solution was collected and set aside for analysis. The washed leaves were then stored in 7 mL centrifuge tubes and set aside. 8 treated leaves from a grouping were stored in the same sample tube. The untreated leaves were collected and stored in separate 7 mL tubes. The same was done with new growth.
# The samples were stored in a −80° C. freezer for 24 hours before milling. Fresh stock of 80:20 LCMS grade acetonitrile and water was prepared as a milling solution. 3 to 4 ceramic milling beads were added to each tube along with 300 μL of milling solution. Tubes were sealed and put into a benchtop homogenizer. Samples were milled for two 12 second intervals at maximum speed with a 30 second rest period in between. Samples were then moved to a 4° C. centrifuge where they were centrifuged at 15000 rpm for 6 minutes. Supernatant was collected and put into 2 mL microcentrifuge tubes. […]
# Samples were run with injections of 10 μL. Data was analyzed and calibration curves were built for known samples, using area under the curve for [M+H]. Unknown concentrations were calculated with the calibration curves to determine the amount of PROTAC® compound present at 24 hours in treated leaves and in the leaf washings.
row,SMILES,concentration at 24 h [µM]
1,"COc1cnc(OC)n2nc(NS(=O)(=O)c3c(OCCOCCOCCOCCOCCOCCOc4ccc5c(c4)C(=O)N(C4CCC(=O)NC4=O)C5=O)cccc3C(F)(F)F)nc12 (stereo not drawn) [Compound 4-B, N-(5,8-Dimethoxy-[1,2,4]triazolo[1,5-c]pyrimidin-2-yl)-2-((17-((2-(2,6-dioxopiperidin-3-yl)-1,3-dioxoisoindolin-5-yl)oxy)-3,6,9,12,15-pentaoxaheptadecyl)oxy)-6-(trifluoromethyl)benzenesulfonamide]",0.342

# Same assay, conditions: Abutilon (plant), treated leaves (milled extract supernatant), topical, 10 μL of 400 μM formulation per leaf; Abutilon treated leaves, 24 hours after 10 μL of 400 μM formulated compound on leaf; read-out: Average Concentration μM (treated leaves)
row,SMILES,concentration at 24 h [µM]
1,"COc1cnc(OC)n2nc(NS(=O)(=O)c3c(OCCOCCOCCOCCOCCOCCOc4ccc5c(c4)C(=O)N(C4CCC(=O)NC4=O)C5=O)cccc3C(F)(F)F)nc12 (stereo not drawn) [Compound 4-B, N-(5,8-Dimethoxy-[1,2,4]triazolo[1,5-c]pyrimidin-2-yl)-2-((17-((2-(2,6-dioxopiperidin-3-yl)-1,3-dioxoisoindolin-5-yl)oxy)-3,6,9,12,15-pentaoxaheptadecyl)oxy)-6-(trifluoromethyl)benzenesulfonamide]",0.491

# Same assay, conditions: Abutilon leaves, 24 hours
row,SMILES,Uptake by leaves
1,"COc1cnc(OC)n2nc(NS(=O)(=O)c3c(OCCOCCOCCOCCOCCOCCOc4ccc5c(c4)C(=O)N(C4CCC(=O)NC4=O)C5=O)cccc3C(F)(F)F)nc12 (stereo not drawn) [Compound 4-B, N-(5,8-Dimethoxy-[1,2,4]triazolo[1,5-c]pyrimidin-2-yl)-2-((17-((2-(2,6-dioxopiperidin-3-yl)-1,3-dioxoisoindolin-5-yl)oxy)-3,6,9,12,15-pentaoxaheptadecyl)oxy)-6-(trifluoromethyl)benzenesulfonamide]",effectively taken up by leaves
